Patent US20130035361A1, “USE OF ERGOTHIONEINE AS A PRESERVATIVE IN FOODS AND BEVERAGES” (priority 2007, published 2013)
Converted amounts (≈) assume the structure as drawn.

Legend:
[1] = ERGO concentration found in Pinot noir wines after 18 months of bottle storage; assay type: physicochemical; conditions: for ERGO Found: Pinot noir wine, after 18 months bottle storage
From the text: According to the invention, sulfur dioxide was replaced in whole or in part with L-ergothioneine in Pinot noir wines at bottling.

[2] = Stability over time in food and beverages; assay type: physicochemical; conditions: stored over a period of several years
[3] = cited from earlier work
[4] = per one unit of L-Ergothioneine; cited from earlier work
liver tissue of rats = conditions: exogenous L-ergothioneine; cited from earlier work
[5] = test system: LPO formation in mouse liver; conditions: cited from earlier work

SMILES | ERGO Found ([1]; SO2 added 30 mg/L, ERGO added 0 mg/L at bottling) [mg/L] | ERGO Found ([1]; SO2 added 70 mg/L, ERGO added 0 mg/L at bottling) [mg/L] | stability over time [2] | water solubility [3] | solubility limit ([3]; room temperature) [mM] | units of Vitamin E equivalent to one unit [4] | ERGO Found ([1]; SO2 added 0 mg/L, ERGO added 10 mg/L at bottling) [mg/L] | ERGO Found ([1]; SO2 added 0 mg/L, ERGO added 30 mg/L at bottling) [mg/L] | ERGO Found ([1]; SO2 added 0 mg/L, ERGO added 50 mg/L at bottling) [mg/L] | ERGO Found ([1]; SO2 added 0 mg/L, ERGO added 70 mg/L at bottling) [mg/L] | presence of ergothioneine in the wine after storage ([1]; Pinot noir wines, SO2 replaced in whole or in part at bottling, after 18 months of storage) | lipid peroxidation by toxic compounds (liver tissue of rats) | LPO formation [5] | decomposition of existing LPO [5]
O=S=O [SO2, sulfur dioxide, reference compound] | 7.3 | 7.5 | – | – | – | – | – | – | – | – | – | – | – | –
C[N+](C)(C)[C@@H](Cc1c[nH]c(=S)[nH]1)C(=O)[O-] [L-ergothioneine] | – | – | very stable over time | readily water soluble | 900 (≈ 206 mg/mL) | ~7000 units of Vitamin E | 8.8 | 29.8 | 55.4 | 81.2 | still present in the wine | prevent lipid peroxidation | inhibited LPO formation | enhanced the decomposition of existing LPO
